{"source": "paper PMC3411833", "about": "“The Two PPX-GppA Homologues from Mycobacterium tuberculosis Have Distinct Biochemical Activities” (PLoS ONE, 2012)", "key": {"[1]": {"molecular_target": "Rv1026 protein from Mycobacterium tuberculosis H37Rv (Mycobacterium tuberculosis H37Rv)", "assay": "SEC + other: dynamic light scattering"}, "[2]": {"molecular_target": "T1, E. coli GPP (EC-GPP, GppA) (Escherichia coli, UniProt P25552)", "T1 construct": "predicted 51 kDa; dimer", "T1 sequence (P25552 1-494)": "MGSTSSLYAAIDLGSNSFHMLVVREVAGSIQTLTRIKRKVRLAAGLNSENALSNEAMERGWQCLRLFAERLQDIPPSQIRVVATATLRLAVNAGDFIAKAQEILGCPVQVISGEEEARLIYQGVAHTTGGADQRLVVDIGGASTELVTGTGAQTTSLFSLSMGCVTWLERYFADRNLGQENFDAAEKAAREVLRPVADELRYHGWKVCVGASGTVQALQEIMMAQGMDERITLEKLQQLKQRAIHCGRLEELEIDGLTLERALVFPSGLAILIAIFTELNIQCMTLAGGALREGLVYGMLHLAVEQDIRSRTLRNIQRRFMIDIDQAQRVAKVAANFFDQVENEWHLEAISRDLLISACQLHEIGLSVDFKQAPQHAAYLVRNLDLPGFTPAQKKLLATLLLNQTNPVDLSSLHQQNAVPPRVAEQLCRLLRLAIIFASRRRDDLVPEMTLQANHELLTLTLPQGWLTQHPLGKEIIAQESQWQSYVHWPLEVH", "assay": "inhibition of poly-P130 hydrolysis, EnzChek phosphate release", "format": "biochemical", "conditions": "poly-P130 125 µM, 1 mM MnCl2, 25 mM KCl, 50 mM HEPES pH 6.8, 37°C", "source_text": "inhibition of poly-P130 hydrolysis, EnzChek phosphate release on E. coli GPP (EC-GPP, GppA)"}, "[3]": {"molecular_target": "T2, E. coli PPX (EC-PPX) (Escherichia coli, UniProt P0AFL6)", "T2 construct": "predicted 53 kDa; dimer", "T2 sequence (P0AFL6 2-513)": "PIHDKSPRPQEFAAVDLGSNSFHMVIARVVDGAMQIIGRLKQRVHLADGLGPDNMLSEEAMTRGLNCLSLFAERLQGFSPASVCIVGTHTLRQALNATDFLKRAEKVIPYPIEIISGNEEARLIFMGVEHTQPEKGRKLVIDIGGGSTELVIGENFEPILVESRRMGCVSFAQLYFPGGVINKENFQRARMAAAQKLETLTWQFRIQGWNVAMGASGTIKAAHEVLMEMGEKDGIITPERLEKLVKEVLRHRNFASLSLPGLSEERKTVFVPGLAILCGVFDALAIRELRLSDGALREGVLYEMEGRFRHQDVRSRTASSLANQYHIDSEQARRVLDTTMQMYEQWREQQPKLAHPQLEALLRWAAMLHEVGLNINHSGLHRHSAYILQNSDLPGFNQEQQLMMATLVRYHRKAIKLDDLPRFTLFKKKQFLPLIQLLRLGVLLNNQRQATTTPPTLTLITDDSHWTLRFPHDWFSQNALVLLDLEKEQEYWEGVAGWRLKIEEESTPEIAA", "assay": "inhibition of poly-P130 hydrolysis, EnzChek phosphate release", "format": "biochemical", "conditions": "poly-P130 125 µM, 1 mM MnCl2, 25 mM KCl, 50 mM HEPES pH 6.8, 37°C", "source_text": "inhibition of poly-P130 hydrolysis, EnzChek phosphate release on E. coli PPX (EC-PPX)"}, "[4]": {"molecular_target": "T1, E. coli GPP (EC-GPP, GppA)", "assay": "GTP hydrolysis, anion exchange chromatography", "format": "biochemical", "conditions": "1 mM GTP, 1 mM MnCl2, 4 mM (NH4)2SO4, 50 mM Tris-HCl pH 7.4, 37°C"}, "[5]": {"molecular_target": "the molecule itself", "assay": "SEC + other: dynamic light scattering; Superdex 200 gel filtration calibrated with protein standards; light scattering of 2, 1 and 0.5 mg/ml protein in 25 mM Tris-HCl pH 7.4, 25 mM NaCl (DynaPro Plate Reader Plus); self-association, dimer"}, "[6]": {"molecular_target": "the molecule itself", "assay": "SEC + other: dynamic light scattering"}}}
{"molecule": "Rv1026 protein from Mycobacterium tuberculosis H37Rv (enzyme)", "values": [{"measurement": "stoichiometry N", "setting": "[1]", "value": 2}]}
{"molecule": "Nc1nc2c(ncn2[C@@H]2O[C@H](COP(=O)(O)OP(=O)(O)O)[C@@H](OP(=O)(O)OP(=O)(O)O)[C@H]2O)c(=O)[nH]1", "note": "[ppGpp, guanosine 3′,5′-bisdiphosphate]", "values": [{"measurement": "Exopolyphosphatase activities / +1 mM ppGpp / (% decrease) / ATPase activities", "setting": "[2]", "value": "6.0±0.5", "unit": "%"}, {"measurement": "Exopolyphosphatase activities / +1 mM ppGpp / (% decrease) / ATPase activities", "setting": "[3]", "value": "10.8±1.2", "unit": "%"}]}
{"molecule": "Nc1nc2c(ncn2[C@@H]2O[C@H](COP(=O)(O)OP(=O)(O)OP(=O)(O)O)[C@@H](OP(=O)(O)OP(=O)(O)O)[C@H]2O)c(=O)[nH]1", "note": "[pppGpp, guanosine 5′-triphosphate, 3′-diphosphate]", "values": [{"measurement": "Exopolyphosphatase activities / +1 mM pppGpp / (% decrease) / ATPase activities", "setting": "[2]", "value": "29.5±4.4", "unit": "%"}, {"measurement": "Exopolyphosphatase activities / +1 mM pppGpp / (% decrease) / ATPase activities", "setting": "[3]", "value": "89.6±20.1", "unit": "%"}]}
{"molecule": "Nc1nc2c(ncn2[C@@H]2O[C@H](COP(=O)(O)OP(=O)(O)OP(=O)(O)O)[C@@H](O)[C@H]2O)c(=O)[nH]1", "note": "[GTP]", "values": [{"measurement": "GTP hydrolysis, anion exchange chromatography", "setting": "[4]", "value": "the E. coli GPP protein was a highly efficient GTPase and a modest ATPase"}]}
{"molecule": "E. coli exopolyphosphatase (PPX) (enzyme, E. coli BL21 (DE3), UniProt P0AFL6 1-513, looked up, also called EC-PPX; E. coli PPX; source: E. coli BL21(DE3), purified (HiTrap Chelating HP, eluted with 60 mM imidazole)) MPIHDKSPRPQEFAAVDLGSNSFHMVIARVVDGAMQIIGRLKQRVHLADGLGPDNMLSEEAMTRGLNCLSLFAERLQGFSPASVCIVGTHTLRQALNATDFLKRAEKVIPYPIEIISGNEEARLIFMGVEHTQPEKGRKLVIDIGGGSTELVIGENFEPILVESRRMGCVSFAQLYFPGGVINKENFQRARMAAAQKLETLTWQFRIQGWNVAMGASGTIKAAHEVLMEMGEKDGIITPERLEKLVKEVLRHRNFASLSLPGLSEERKTVFVPGLAILCGVFDALAIRELRLSDGALREGVLYEMEGRFRHQDVRSRTASSLANQYHIDSEQARRVLDTTMQMYEQWREQQPKLAHPQLEALLRWAAMLHEVGLNINHSGLHRHSAYILQNSDLPGFNQEQQLMMATLVRYHRKAIKLDDLPRFTLFKKKQFLPLIQLLRLGVLLNNQRQATTTPPTLTLITDDSHWTLRFPHDWFSQNALVLLDLEKEQEYWEGVAGWRLKIEEESTPEIAA", "values": [{"measurement": "stoichiometry N", "setting": "[5]", "value": 2}]}
{"molecule": "E. coli guanosine pentaphosphate 5'-phosphohydrolase (GPP, GppA) (enzyme, E. coli BL21 (DE3), UniProt P25552 1-494, looked up, also called EC-GPP; E. coli GPP; source: E. coli BL21(DE3), purified (HiTrap Chelating HP, eluted with 60 mM imidazole)) MGSTSSLYAAIDLGSNSFHMLVVREVAGSIQTLTRIKRKVRLAAGLNSENALSNEAMERGWQCLRLFAERLQDIPPSQIRVVATATLRLAVNAGDFIAKAQEILGCPVQVISGEEEARLIYQGVAHTTGGADQRLVVDIGGASTELVTGTGAQTTSLFSLSMGCVTWLERYFADRNLGQENFDAAEKAAREVLRPVADELRYHGWKVCVGASGTVQALQEIMMAQGMDERITLEKLQQLKQRAIHCGRLEELEIDGLTLERALVFPSGLAILIAIFTELNIQCMTLAGGALREGLVYGMLHLAVEQDIRSRTLRNIQRRFMIDIDQAQRVAKVAANFFDQVENEWHLEAISRDLLISACQLHEIGLSVDFKQAPQHAAYLVRNLDLPGFTPAQKKLLATLLLNQTNPVDLSSLHQQNAVPPRVAEQLCRLLRLAIIFASRRRDDLVPEMTLQANHELLTLTLPQGWLTQHPLGKEIIAQESQWQSYVHWPLEVH", "values": [{"measurement": "stoichiometry N", "setting": "[5]", "value": 2}]}
{"molecule": "Rv0496 (MTB-PPX1) protein from Mycobacterium tuberculosis H37Rv (enzyme) MRLGVLDVGSNTVHLLVVDAHRGGHPTPMSSTKATLRLAEATDSSGKITKRGADKLISTIDEFAKIAISSGCAELMAFATSAVRDAENSEDVLSRVRKETGVELQALRGEDESRLTFLAVRRWYGWSAGRILNLDIGGGSLEVSSGVDEEPEIALSLPLGAGRLTREWLPDDPPGRRRVAMLRDWLDAELAEPSVTVLEAGSPDLAVATSKTFRSLARLTGAAPSMAGPRVKRTLTANGLRQLIAFISRMTAVDRAELEGVSADRAPQIVAGALVAEASMRALSIEAVEICPWALREGLILRKLDSEADGTALIESSSVHTSVRAVGGQPADRNAANRSRGSKP", "values": [{"measurement": "stoichiometry N", "setting": "[6]", "value": 2}]}
